Measurements as given in US8501732B2, “Aminomethyl quinolone compounds” (Hoffmann-La Roche Inc., priority 2011, dated 2013).
pIC50: −log10 of the molar value.

Each compound was assayed against JNK1 (Homo sapiens (Human), UniProt P45983) (assay: In Vitro JNK1 Assay (TR-FRET, phosphorylation of GST-c-Jun)). Conditions: 0.2 nM active JNK1 kinase, 26.7 nM GST-c-Jun, 2 μM ATP, 30 min at room temperature.
Assay type: biochemical
Procedure: Phosphorylation of GST-c-Jun protein (amino acid residues 1-79) was measured as JNK1 activity. […] The reaction buffer contained 50 mM HEPES, pH […], 1 mM DTT, 0.1 mM Na3VO4 and 0.2 mg/mL BSA. After 30 min. incubation at room temperature, the reaction was terminated by adding buffer containing 8 mM EDTA and a polyclonal anti-phospho-c-Jun antibody (Cell Signaling #9261L), followed by an additional incubation of 30 min. at room temperature. […] Time-resolved Fluorescence Resonance Energy Transfer (TR-FRET) signals were measured 1 hr. later on the EnVision reader (Perkin Elmer). Compound potency was assessed at 10 serially diluted concentrations. Percentage of inhibition at each concentration was determined to generate an IC50 value for each compound.

JNK1, sequence (P45983 whole entry): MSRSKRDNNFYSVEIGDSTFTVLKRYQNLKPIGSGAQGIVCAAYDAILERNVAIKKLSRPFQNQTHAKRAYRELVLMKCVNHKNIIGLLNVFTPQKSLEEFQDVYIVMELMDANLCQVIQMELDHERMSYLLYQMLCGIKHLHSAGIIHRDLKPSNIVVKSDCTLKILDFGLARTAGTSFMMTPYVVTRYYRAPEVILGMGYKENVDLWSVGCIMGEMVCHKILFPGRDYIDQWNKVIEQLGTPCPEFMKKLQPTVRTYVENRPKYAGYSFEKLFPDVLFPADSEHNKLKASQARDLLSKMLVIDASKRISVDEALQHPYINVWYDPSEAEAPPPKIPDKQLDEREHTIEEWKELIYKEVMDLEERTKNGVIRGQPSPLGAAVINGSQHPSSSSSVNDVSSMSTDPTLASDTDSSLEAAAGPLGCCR

SMILES	pIC50
O=C(NCc1cn(-c2ccccc2)c2cc(Cl)ccc2c1=O)c1ccc2cc[nH]c2c1 [Example I-46, 1H-Indole-6-carboxylic acid (7-chloro-4-oxo-1-phenyl-1,4-dihydro-quinolin-3-ylmethyl)-amide]	6.85
O=C(NCc1cn(-c2ccccc2)c2cc(Cl)ccc2c1=O)c1ccn(Cc2cccc(Cl)c2)c(=O)c1 [Example I-44, 1-(3-Chloro-benzyl)-2-oxo-1,2-dihydro-pyridine-4-carboxylic acid (7-chloro-4-oxo-1-phenyl-1,4-dihydro-quinolin-3-ylmethyl)-amide]	6.96
O=C(NCc1cn(-c2ccccc2)c2cc(Cl)ccc2c1=O)c1cnc2nc[nH]c2c1 [Example I-49, 1H-Imidazo[4,5-b]pyridine-6-carboxylic acid (7-chloro-4-oxo-1-phenyl-1,4-dihydro-quinolin-3-ylmethyl)-amide]	6.64
O=C(NCc1cn(-c2ccccc2)c2cc(Cl)ccc2c1=O)c1cn(Cc2ccccc2)nn1 [Example I-55, 1-Benzyl-1H-[1,2,3]triazole-4-carboxylic acid (7-chloro-4-oxo-1-phenyl-1,4-dihydro-quinolin-3-ylmethyl)-amide]	6.15
Cn1ccc(C(=O)NCc2cn(-c3ccccc3)c3cc(Cl)ccc3c2=O)cc1=O [Example I-54, 1-Methyl-2-oxo-1,2-dihydro-pyridine-4-carboxylic acid (7-chloro-4-oxo-1-phenyl-1,4-dihydro-quinolin-3-ylmethyl)-amide]	6.17
O=C(NCc1cn(-c2ccccc2)c2cc(Cl)ccc2c1=O)c1ccc(-c2cnco2)cc1 [Example I-47, N-(7-Chloro-4-oxo-1-phenyl-1,4-dihydro-quinolin-3-ylmethyl)-4-oxazol-5-yl-benzamide]	6.77
COc1ccccc1Cn1ccc(C(=O)NCc2cn(-c3ccccc3)c3cc(Cl)ccc3c2=O)cc1=O [Example I-48, 1-(2-Methoxy-benzyl)-2-oxo-1,2-dihydro-pyridine-4-carboxylic acid (7-chloro-4-oxo-1-phenyl-1,4-dihydro-quinolin-3-ylmethyl)-amide]	6.74
O=C(NCc1cn(-c2ccccc2)c2cc(Cl)ccc2c1=O)c1cc(F)cc(F)c1 [Example I-58, N-(7-Chloro-4-oxo-1-phenyl-1,4-dihydro-quinolin-3-ylmethyl)-3,5-difluoro-benzamide]	6.20
O=C(NCc1cn(-c2ccccc2)c2cc(Cl)ccc2c1=O)Oc1ccccc1 [Example I-179, (7-Chloro-4-oxo-1-phenyl-1,4-dihydro-quinolin-3-ylmethyl)-carbamic acid phenyl ester]	5.70
O=C(NCc1cn(-c2ccccc2)c2cc(Cl)ccc2c1=O)c1ccc(N2CC[C@H](O)C2)nc1 [Example I-87, N-(7-Chloro-4-oxo-1-phenyl-1,4-dihydro-quinolin-3-ylmethyl)-6-((S)-3-hydroxy-pyrrolidin-1-yl)-nicotinamide]	6.92
O=C(NCc1cn(-c2ccccc2)c2cc(Cl)ccc2c1=O)c1ccc(Cl)nc1 [Example I-61, 6-Chloro-N-(7-chloro-4-oxo-1-phenyl-1,4-dihydro-quinolin-3-ylmethyl)-nicotinamide]	6.37
CN(C)C(=O)c1c(CNC(=O)c2ccc3c(c2)OCCO3)c(=O)c2ccc(Cl)cc2n1-c1ccccc1 [Example I-21, 7-Chloro-3-{[(2,3-dihydro-benzo[1,4]dioxine-6-carbonyl)-amino]-methyl}-4-oxo-1-phenyl-1,4-dihydro-quinoline-2-carboxylic acid dimethylamide]	6.34
O=C(NCc1c(-c2ncco2)n(-c2ccccc2)c2cc(Cl)ccc2c1=O)c1ccc(Cl)nc1 [Example I-6, 6-Chloro-N-(7-chloro-2-oxazol-2-yl-4-oxo-1-phenyl-1,4-dihydro-quinolin-3-ylmethyl)-nicotinamide]	7.54
Cn1cc(C(=O)NCc2cn(-c3ccccc3)c3cc(Cl)ccc3c2=O)nn1 [Example I-53, 1-Methyl-1H-[1,2,3]triazole-4-carboxylic acid (7-chloro-4-oxo-1-phenyl-1,4-dihydro-quinolin-3-ylmethyl)-amide]	6.25
CN(C)C(=O)c1c(CNC(=O)c2ccc(N3CCOCC3)cc2)c(=O)c2ccc(Cl)cc2n1-c1ccccc1 [Example I-17, 7-Chloro-3-[(4-morpholin-4-yl-benzoylamino)-methyl]-4-oxo-1-phenyl-1,4-dihydro-quinoline-2-carboxylic acid dimethylamide]	6.85

Now from value to compound:

pIC50	SMILES
6.04	COC(=O)c1c(CN(C)C(=O)c2ccc(S(C)(=O)=O)cc2)c(=O)c2ccc(Cl)cc2n1-c1ccccc1 [Example I-211, 7-Chloro-3-{[(4-methanesulfonyl-benzoyl)-methyl-amino]-methyl}-4-oxo-1-phenyl-1,4-dihydro-quinoline-2-carboxylic acid methyl ester]
6.82	COC(=O)c1c(CNC(=O)N2CCOCC2)c(=O)c2ccc(Cl)cc2n1-c1ccccc1 [Example I-209, 7-Chloro-3-{[(morpholine-4-carbonyl)-amino]-methyl}-4-oxo-1-phenyl-1,4-dihydro-quinoline-2-carboxylic acid methyl ester]
5.74	O=C(NCc1cn(-c2ccccc2)c2cc(Cl)ccc2c1=O)Nc1ccc(OC(F)(F)F)cc1 [Example I-205, 1-(4-trifluoromethoxy-phenyl)-3-(7-chloro-4-oxo-1-phenyl-1,4-dihydro-quinolin-3-yl-methyl)-urea]
6.22	O=C(NCc1cn(-c2ccccc2Cl)c2cc(Cl)ccc2c1=O)c1ccc(Br)nc1 [Example I-101, 6-Bromo-N-[7-chloro-1-(2-chloro-phenyl)-4-oxo-1,4-dihydro-quinolin-3-ylmethyl]-nicotinamide]
6.04	CC(C)(C)OC(=O)N1CCC(NC(=O)NCc2cn(-c3ccccc3)c3cc(Cl)ccc3c2=O)C1 (centres unmarked) [Example I-183, 3-[3-(7-Chloro-4-oxo-1-phenyl-1,4-dihydro-quinolin-3-ylmethyl)-ureido]-pyrrolidine-1-carboxylic acid tert-butyl ester]
5.96	COC(=O)[C@H]1CC[C@@H](NC(=O)NCc2cn(-c3ccccc3)c3cc(Cl)ccc3c2=O)CC1 [Example I-185, 4-[3-(7-Chloro-4-oxo-1-phenyl-1,4-dihydro-quinolin-3-ylmethyl)-ureido]-cyclohexanecarboxylic acid methyl ester]
5.68	O=C(NCc1cn(-c2ccccc2)c2cc(Cl)ccc2c1=O)N1CCC(c2ccccc2)CC1 [Example I-190, 4-Phenyl-piperidine-1-carboxylic acid (7-chloro-4-oxo-1-phenyl-1,4-dihydro-quinolin-3-ylmethyl)-amide]
6.70	COC(=O)c1c(CNC(=O)C(C)C)c(=O)c2ccc(Cl)cc2n1-c1ccccc1 [Example I-147, 7-Chloro-3-(isobutyrylamino-methyl)-4-oxo-1-phenyl-1,4-dihydro-quinoline-2-carboxylic acid methyl ester]
6.07	O=C(NCc1cn(-c2ccccc2)c2cc(Cl)ccc2c1=O)N1CCOCC1 [Example I-200, Morpholine-4-carboxylic acid (7-chloro-4-oxo-1-phenyl-1,4-dihydro-quinolin-3-ylmethyl)-amide]
6.15	CC(C)(C)OC(=O)N[C@H]1CC[C@H](NC(=O)NCc2cn(-c3ccccc3)c3cc(Cl)ccc3c2=O)CC1 [Example I-182, {4-[3-(7-Chloro-4-oxo-1-phenyl-1,4-dihydro-quinolin-3-ylmethyl)-ureido]-cyclohexyl}-carbamic acid tert-butyl ester]
6.62	O=C(NCc1cn(-c2ccccc2)c2cc(Cl)ccc2c1=O)NC1C2CC3CC1CC(O)(C3)C2 (centres unmarked) [Example I-191, 1-(7-Chloro-4-oxo-1-phenyl-1,4-dihydro-quinolin-3-ylmethyl)-3-(5-hydroxy-adamantan-2-yl)-urea]
7.22	CC(C)(C)OC(=O)N1CCC(NC(=O)NCc2cn(-c3ccccc3)c3cc(Cl)ccc3c2=O)CC1 [Example I-192, 4-[3-(7-Chloro-4-oxo-1-phenyl-1,4-dihydro-quinolin-3-ylmethyl)-ureido]-piperidine-1-carboxylic acid tert-butyl ester]
6.82	O=C(NCc1cn(-c2ccccc2F)c2cc(F)ccc2c1=O)c1ccc(Cl)nc1 [Example I-105, 6-Chloro-N-[7-fluoro-1-(2-fluoro-phenyl)-4-oxo-1,4-dihydro-quinolin-3-yl-methyl]-nicotinamide]
5.66	CC(=O)N1CCC(NC(=O)NCc2cn(-c3ccccc3)c3cc(Cl)ccc3c2=O)CC1 [Example I-198, 1-(1-Acetyl-piperidin-4-yl)-3-(7-chloro-4-oxo-1-phenyl-1,4-dihydro-quinolin-3-ylmethyl)-urea]
6.17	COC(=O)c1c(CNC(=O)c2ccccc2OC)c(=O)c2ccc(Cl)cc2n1-c1ccccc1 [Example I-149, 7-Chloro-3-[(2-methoxy-benzoylamino)-methyl]-4-oxo-1-phenyl-1,4-dihydro-quinoline-2-carboxylic acid methyl ester]
6.26	O=C(NCc1cn(-c2ccccc2)c2cc(Cl)ccc2c1=O)Nc1ccccc1 [Example I-201, 1-(7-Chloro-4-oxo-1-phenyl-1,4-dihydro-quinolin-3-ylmethyl)-3-phenyl-urea]
5.92	N#C/N=C(/NCc1cn(-c2ccccc2)c2cc(Cl)ccc2c1=O)N1CCOCC1 [Example I-177, [(7-Chloro-4-oxo-1-phenyl-1,4-dihydro-quinolin-3-ylmethyl)-amino]-morpholin-4-yl-methylene-cyanamide]
